Data published in patent US8686044B2, “Amide derivative, pest control agent containing the amide derivative, and use of the amide derivative” (Mitsui Chemicals Agro, Inc., priority 2008, dated 2014).
Read-outs that look alike come from different tables or passages of the source.

Experiments:
Format in all cases: in vivo
Blattella germanica = experiment: Pesticidal test against Blattella germanica (petri dish dry film); details: 24 h, concentration 100 ppm, female adults, examined after 1 day, 25° C., read-out: pesticidal rate
Method in brief: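 Acetone solution of test compound at a predetermined concentration dried as a film in a 9 cm petri dish; female adult cockroaches released onto it and kept at 25° C. Living and dead counted after 1 day; five insects per group, two replicates.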

Musca domestica = experiment: Pesticidal test against Musca domestica (petri dish dry film); details: 24 h, concentration 100 ppm, female adults, examined after 1 day, 25° C., read-out: pesticidal rate
Method in brief: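 Dry film from 1 ml acetone solution of compound at a predetermined concentration, air-dried in a 9 cm petri dish; female adult flies released and dish capped. Held at 25° C; living and dead counted after 1 day. Five insects per group, two replicates.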

Ctenocephalides Felis [1] = experiment: Insecticidal test for Ctenocephalides felis, Test Example 1 (dry film in glass tube, 0.5 ml, Table A4); details: for pest or weed control at 0.1 µg/mL / pest or weed control at 1 µg/mL: Ctenocephalides felis, read-out: death rate; for pest or weed control at 1 µg/mL: concentration 1.0 μg/ml
Method: Insecticidal Test for Ctenocephalides Felis
0.5 ml of a solution of acetone, the active ingredient, prepared to the prescribed concentration was added dropwise to a glass tube with a flat bottom (internal diameter: 2.6 cm, bottom area: 5.3 cm^2, height: 12 cm), and the solvent was evaporated at room temperature to form a dry film of the agent on the bottom surface. About 10 adults of Ctenocephalides Felis per glass tube were added, and the adults were contact-exposed to the test compound. After 24 hours of the exposure, the conditions of the adults were examined and classified into “alive” and “dead (including a moribund condition)” to determine the death rate (in triplicate).
As the comparative compounds, the following Compounds (A), (B), and (C) disclosed in WO2009/080203, and fipronil were used.

Helicoverpa armigera = experiment: Pesticidal test against Helicoverpa armigera (cabbage leaf disk dip); details: foliar, 72 h, 2-stage larvae, examined after 3 days, 25° C., read-out: pesticidal rate; for pest or weed control at 1 ppm: concentration 1 ppm
Method in brief: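 Cabbage leaf disks were dipped for 30 s in test solution at a set concentration and air-dried. Second-instar larvae were placed one per hole and held at 25 °C, with live and dead counts taken after 3 days. Five larvae per group were tested in two replicates.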

Laodelphax striatellus = experiment: Pesticidal test against Laodelphax striatellus (rice seedling spray); details: 144 h, concentration 100 ppm, 3-stage larvae, examined after 6 days, 25° C., read-out: pesticidal rate
Method in brief: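 Rice seedlings sprayed with 2.5 ml acetone solution of compound at a predetermined concentration, air-dried, then infested with third-stage Laodelphax striatellus larvae in capped water-containing tubes at 25 °C. Living and dead insects counted after 6 days; ten larvae per group, two replicates.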

Adoxophyes honmai = experiment: Pesticidal test against Adoxophyes honmai (artificial feed dip); details: 144 h, 2-stage larvae, examined after 6 days, 25° C., read-out: pesticidal rate; for pest or weed control at 1 ppm: concentration 1 ppm
Method in brief: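 Thin artificial feed slices dipped 30 s in test solution at a predetermined concentration, air-dried, then offered to 2nd-stage larvae. Kept at 25° C; live and dead larvae counted after 6 days. Five larvae per group, two replicates.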

Spodoptera litura = experiment: Pesticidal test against Spodoptera litura (cabbage leaf dip); details: foliar, 144 h, concentration 1 ppm, 2-stage larvae, examined after 6 days, 25° C., read-out: pesticidal rate
Method in brief: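 Cabbage leaf pieces dipped 30 seconds in compound solution at a predetermined concentration and air-dried, then offered to second-stage larvae, five per group in two replicates. Held at 25° C. Living and dead larvae counted after 6 days.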

Plutella xylostella = experiment: Pesticidal test against Plutella xylostella (cabbage leaf dip); details: foliar, 144 h, concentration 1 ppm, 2-stage larvae, examined after 6 days, 25° C., read-out: pesticidal rate
Method in brief: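 Cabbage leaf pieces dipped 30 s in test solution at a predetermined concentration, air-dried, then offered to 2nd-instar larvae, five per group in duplicate. Held at 25° C; living and dead larvae counted after 6 days.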

Choristoneura magnanima = experiment: Pesticidal test against Choristoneura magnanima (artificial feed dip); details: 144 h, concentration 1 ppm, 2-stage larvae, examined after 6 days, 25° C., read-out: pesticidal rate
Method in brief: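 Thin artificial feed slices dipped 30 s in compound solution at a set concentration, air-dried, then offered to 2nd-stage larvae held at 25° C. Living and dead larvae counted after 6 days; five larvae per group, two replicates.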

Ctenocephalides Felis [2] = experiment: Insecticidal test for Ctenocephalides felis, Test Example 1 (dry film in glass tube, 0.5 ml, Table A4); details: adults
Coptotermes formosanus = experiment: Pesticidal test against Coptotermes formosanus (treated filter paper); details: 120 h, concentration 30 ppm, examined after 5 days of treatment, 28° C., read-out: pesticidal rate
Method: Pesticidal Test against Coptotermes formosanus
20 μl of an acetone solution in which a test compound had been prepared at a predetermined concentration was added dropwise to the filter paper having a diameter of […] included in a polypropylene cup, and air-dried, and then 20 μl of water was added thereto. Coptotermes formosanus was released and the cup was capped. They were left to stand in a thermostatic chamber at 28° C., and the numbers of the living pests and the dead pests were examined after 5 days of treatment. The test was carried out with ten larvae per group in two replicates.

Rhipicephalus sanguineus = experiment: Insecticidal test for Rhipicephalus sanguineus (treated glass petri dish, Table A6); details: adults of Rhipicephalus sanguineus, 18 hour exposure, examined after 48 hours, in single
Method: Insecticidal Test for Rhipicephalus sanguineus
0.5 ml of a solution of acetone, the active ingredient, prepared to the prescribed dose was added dropwise into a glass petri dish with a diameter of 10 cm, and the acetone was evaporated at room temperature. About 10 adults of Rhipicephalus sanguineus per dish were added, and the dish was covered by another glass petri dish that was treated with the active ingredient in the same manner described above. After 18 hour exposure to the test substance, the adults were transferred into a glass petri dish that was not treated with the active ingredient. After 48 hours of the exposure, the conditions of the adults were examined and classified into “alive” and “dead (including a moribund condition)” to determine the death rate (in single).
As the comparative compounds, said Compounds (B), (C), and (D), and the following Compound (F) disclosed in WO2009/080203, and fipronil were used.

Ctenocephalides Felis [3] = experiment: Insecticidal test for Ctenocephalides felis, Test Example 3 (dry film in glass tube, 0.96 ml, Table A5); details: adults of Ctenocephalides felis, after 24 hours of exposure, in triplicate
Method: Insecticidal Test for Ctenocephalides felis
0.96 ml of a solution of acetone, the active ingredient, prepared to the prescribed concentration was added dropwise to a glass tube with a flat bottom (internal diameter: 3.6 cm, height: 12 cm), and the solvent was evaporated at room temperature to form a dry film of the agent on the bottom surface. About 10 adults of Ctenocephalides felis per glass tube were added, and they were contact-exposed to the test compound. After 24 hours of the exposure, the conditions of the adults were examined and classified into “alive” and “dead (including a moribund condition)” to determine the death rate was determined (in triplicate).
As the comparative compounds, the following Compounds (D) and (E) disclosed in WO2009/080203, and fipronil were used.

[4] = concentration 0.1 μg/ml, adults, after 24 hours of the exposure, in triplicate
[5] = adults, after 24 hours of the exposure, in triplicate

SMILES | pest or weed control at 100 ppm (Blattella germanica) [%] | pest or weed control at 100 ppm (Musca domestica) [%] | pest or weed control at 0.1 µg/mL (Ctenocephalides Felis [1]; [4]) [%] | pest or weed control at 100 ppm (Laodelphax striatellus) [%] | pest or weed control at 1 ppm (Spodoptera litura) [%] | pest or weed control at 1 ppm (Plutella xylostella) [%] | pest or weed control at 1 ppm (Choristoneura magnanima) [%] | pest or weed control at 1 µg/mL (Ctenocephalides Felis [1]; [5]) [%] | death rate (Rhipicephalus sanguineus; 0.673 mg/m^2) [%] | death rate (Rhipicephalus sanguineus; 2.69 mg/m^2) [%] | death rate (Rhipicephalus sanguineus; 10.8 mg/m^2) [%] | other results
O=C(Nc1cccc(C(=O)Nc2c(I)cc(C(F)(C(F)(F)F)C(F)(F)F)cc2C(F)(F)F)c1F)c1ccc(F)cc1 [6-1733, 2-fluoro-3-(4-fluorobenzamide)-N-(2-iodo-4-(heptafluoropropan-2-yl)-6-(trifluoromethyl)phenyl)benzamide] | ≥ 70 | ≥ 70 | 70 | ≥ 70 | ≥ 70 | ≥ 70 | ≥ 70 | – | – | – | – | pest or weed control at 1 ppm (Helicoverpa armigera): ≥ 70%; pest or weed control at 1 ppm (Adoxophyes honmai): ≥ 70%
CN(C(=O)c1ccccc1)c1cccc(C(=O)Nc2c(Br)cc(C(F)(C(F)(F)F)C(F)(F)F)cc2Br)c1F [7-1104, N-(2,6-dibromo-4-(heptafluoropropan-2-yl)phenyl)-2-fluoro-3-(N-methylbenzamide)benzamide] | ≥ 70 | ≥ 70 | 73.3 | ≥ 70 | ≥ 70 | ≥ 70 | ≥ 70 | – | – | – | – | speed of effect as compared with the fipronil (Ctenocephalides Felis [1]; adults, compared with fipronil): immediate effect; pest or weed control at 10 ppm (Helicoverpa armigera; concentration 10 ppm): ≥ 70%; effect in the examination after 12 hours of the exposure (Ctenocephalides Felis [2]): effective; pest or weed control at 10 ppm (Adoxophyes honmai; concentration 10 ppm): ≥ 70%; pest or weed control at 30 ppm (Coptotermes formosanus): ≥ 70%
CN(C(=O)c1cccc(F)c1)c1cccc(C(=O)Nc2c(I)cc(C(F)(C(F)(F)F)C(F)(F)F)cc2C(F)(F)F)c1F [7-1732, 2-fluoro-3-(3-fluoro-N-methylbenzamide)-N-(2-iodo-4-(heptafluoropropan-2-yl)-6-(trifluoromethyl)phenyl)benzamide] | ≥ 70 | ≥ 70 | 76.7 | ≥ 70 | ≥ 70 | ≥ 70 | ≥ 70 | – | – | – | – | pest or weed control at 1 ppm (Helicoverpa armigera): ≥ 70%; pest or weed control at 1 ppm (Adoxophyes honmai): ≥ 70%; pest or weed control at 30 ppm (Coptotermes formosanus): ≥ 70%
Cc1cc(C(F)(C(F)(F)F)C(F)(F)F)cc(C)c1NC(=O)c1cccc(NC(=O)c2cccnc2F)c1 [compound (A), reference compound] | – | – | – | – | – | – | – | 0 | – | – | – | –
O=C(Nc1cccc(C(=O)Nc2c(I)cc(C(F)(C(F)(F)F)C(F)(F)F)cc2I)c1)c1ccccc1 [compound (B)] | – | – | – | – | – | – | – | 3.2 | 0.0 | 20.0 | 50.0 | –
O=C(Nc1cccc(C(=O)Nc2c(I)cc(C(F)(F)F)cc2C(F)(F)F)c1)c1ccccc1 [compound (C)] | – | – | – | – | – | – | – | 0 | 0.0 | 11.1 | 10.0 | –
Cc1cc(C(F)(C(F)(F)F)C(F)(F)F)cc(C)c1NC(=O)c1cccc(NC(=O)c2cccnc2Cl)c1F [compound (D)] | – | – | – | – | – | – | – | – | 0.0 | 10.0 | 50.0 | death rate (Ctenocephalides Felis [3]; 0.3 μg/ml): 22.0%; death rate (Ctenocephalides Felis [3]; 1 μg/ml): 61.4%
CCc1cc(C(F)(C(F)(F)F)C(F)(F)F)cc(C)c1NC(=O)c1cccc(NC(=O)c2ccccc2Cl)c1F [compound (E)] | – | – | – | – | – | – | – | – | – | – | – | death rate (Ctenocephalides Felis [3]; 1 μg/ml): 0.0%
N#Cc1nn(-c2c(Cl)cc(C(F)(F)F)cc2Cl)c(N)c1[S+]([O-])C(F)(F)F (stereo not shown) [fipronil] | – | – | – | – | – | – | – | – | 100.0 | – | – | pest or weed control at 0.1 µg/mL (Ctenocephalides Felis [1]; 24 h): 92.1%; death rate (Ctenocephalides Felis [3]; 0.03 μg/ml): 70.0%; death rate (Ctenocephalides Felis [3]; 0.1 μg/ml): 100.0%; death rate (Rhipicephalus sanguineus; 0.0431 mg/m^2): 0.0%; death rate (Rhipicephalus sanguineus; 0.172 mg/m^2): 45.5%
